# Molecular target: human NAMPT (Homo sapiens (Human), UniProt P43490)
# Test: NMN fluorescence biochemical assay (human recombinant NAMPT enzyme assay)
# Procedure, shortened: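 Activation of recombinant human NAMPT (6 nM) was tested with 2.5 mM ATP, 20 μM PRPP and 150 μM nicotinamide in 50 mM HEPES pH 7.2 for 60 min at ambient temperature. NMN was derivatized with acetophenone/KOH/formic acid and read by fluorescence (355/460 nm) after 40 min.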
# human NAMPT, sequence (P43490 whole entry): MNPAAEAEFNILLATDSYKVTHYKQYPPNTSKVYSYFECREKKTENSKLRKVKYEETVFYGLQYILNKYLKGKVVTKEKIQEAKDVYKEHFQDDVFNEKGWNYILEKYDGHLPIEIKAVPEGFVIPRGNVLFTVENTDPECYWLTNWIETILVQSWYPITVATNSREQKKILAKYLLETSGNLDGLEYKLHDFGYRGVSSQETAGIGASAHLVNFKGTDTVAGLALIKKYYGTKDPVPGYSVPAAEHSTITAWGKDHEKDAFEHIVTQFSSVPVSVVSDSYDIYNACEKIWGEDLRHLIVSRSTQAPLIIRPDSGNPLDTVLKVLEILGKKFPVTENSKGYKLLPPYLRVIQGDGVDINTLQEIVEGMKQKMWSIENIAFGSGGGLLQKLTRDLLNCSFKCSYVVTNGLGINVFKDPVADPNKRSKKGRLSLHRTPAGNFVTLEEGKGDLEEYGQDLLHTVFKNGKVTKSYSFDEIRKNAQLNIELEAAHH
SMILES,AC1.4 Human [µM],EC50 [µM]
"CCc1ncoc1C(=O)NCc1ccc(NC(=O)OCc2ccc(Cl)cc2)cc1 [Compound 347, (4-chlorophenyl)methyl N-(4-{[(4-ethyl-1,3-oxazol-5-yl)formamido]methyl}phenyl)carbamate]",13.92,34.8
"O=C(Nc1ccc(Cc2ccncc2)cc1)OCc1ccncn1 [Compound 349, pyrimidin-4-ylmethyl (4-(pyridin-4-ylmethyl)phenyl)carbamate]",15.55,26
"O=C(Nc1ccc(Cc2ccns2)cc1)OCc1ccc(Cl)cc1 [Compound 350, 4-chlorobenzyl (4-(isothiazol-5-ylmethyl)phenyl)carbamate]",20.27,44.4
"O=C(Nc1ccc(Cc2cncs2)cc1)OCc1ccc(Cl)cc1 [Compound 351, 4-chlorobenzyl (4-(thiazol-5-ylmethyl)phenyl)carbamate]",22.18,37.3
"CN(C1COC1)S(=O)(=O)c1ccc(NC(=O)OCc2ccc(Cl)cc2)cc1 [Compound 352, 4-chlorobenzyl (4-(N-methyl-N-(oxetan-3-yl)sulfamoyl)phenyl)carbamate]",22.88,46.3
"O=C(Nc1ccc(Cc2cocn2)cc1)OCc1ccc(Cl)cc1 [Compound 353, 4-chlorobenzyl (4-(oxazol-4-ylmethyl)phenyl)]",23.63,24.3
"O=C(Nc1ccc(COC2CN(C3COC3)C2)cc1)OCc1ccc(Cl)cc1 [Compound 354, 4-chlorobenzyl (4-(((1-(oxetan-3-yl)azetidin-3-yl)oxy)methyl)phenyl)carbamate]",23.64,38.8
"Cn1cc(COC(=O)Nc2ccc(Cc3ccncc3)cc2)cn1 [Compound 355, (1-methyl-1H-pyrazol-4-yl)methyl (4-(pyridin-4-ylmethyl)phenyl)carbamate]",25.86,4.96
"Cc1ccc(S(=O)(=O)NCc2ccc(NC(=O)OCc3ccc(Cl)cc3)cc2)cn1 [Compound 356, (4-chlorophenyl)methyl N-{4-[(6-methylpyridine-3-sulfonamido)methyl]phenyl}carbamate]",29.04,18.2
"CCC(=O)N1CCC2(CC(Cc3ccc(NC(=O)OCc4cnco4)cc3F)C2)C1 (stereo not shown) [Compound 367, oxazol-5-ylmethyl (3-fluoro-4-((6-propionyl-6-azaspiro[3.4]octan-2-yl)methyl)phenyl)carbamate]",0.07,4.77
"CC(C)C(=O)N1CCC2(CC(Cc3ccc(NC(=O)OCc4cnco4)cc3F)C2)C1 (stereo not shown) [Compound 368, oxazol-5-ylmethyl (3-fluoro-4-((6-isobutyryl-6-azaspiro[3.4]octan-2-yl)methyl)phenyl)carbamate]",0.09,2.93
"COC(=O)N1CCC2(CC(Cc3ccc(NC(=O)OCc4cnco4)cc3F)C2)C1 (stereo not shown) [Compound 371, methyl 2-(2-fluoro-4-(((oxazol-5-ylmethoxy)carbonyl)amino)benzyl)-6-azaspiro[3.4]octane-6-carboxylate]",0.27,4.57
"CC(C)(C)OC(=O)N1CCC2(CC(Cc3ccc(NC(=O)OCc4cnco4)cc3F)C2)C1 (stereo not shown) [Compound 377, tert-butyl 2-(2-fluoro-4-(((oxazol-5-ylmethoxy)carbonyl)amino)benzyl)-6-azaspiro[3.4]octane-6-carboxylate]",1.08,9.37
"O=C(Nc1ccc(CC2CC3(CCNC3)C2)c(F)c1)OCc1cnco1 (stereo not shown) [Compound 378, oxazol-5-ylmethyl (4-((6-azaspiro[3.4]octan-2-yl)methyl)-3-fluorophenyl)carbamate]",0.38,18.6
"CN(C)C(=O)N1CCC2(CC(Cc3ccc(NC(=O)OCc4cnco4)cc3F)C2)C1 (stereo not shown) [Compound 379, oxazol-5-ylmethyl (4-((6-(dimethylcarbamoyl)-6-azaspiro[3.4]octan-2-yl)methyl)-3-fluorophenyl)carbamate]",0.12,2.96
"CN(C)C(=O)N1CCC[C@@H](c2ccc(NC(=O)OCc3cnco3)cc2)C1 [Compound 385, oxazol-5-ylmethyl (S)-(4-(1-(dimethylcarbamoyl)piperidin-3-yl)phenyl)carbamate]",1.69,20.8
"O=C(Nc1ccc(CC2CC3CCC(C2)N3C(=O)N2CCOCC2)cc1)OCc1cnco1 (stereo not shown) [Compound 389, oxazol-5-ylmethyl (4-((8-(morpholine-4-carbonyl)-8-azabicyclo[3.2.1]octan-3-yl)methyl)phenyl)carbamate]",0.09,3.75
"O=C(Nc1ccc(CC2CC3CCC(C2)N3C(=O)N2CCCCC2)cc1)OCc1cnco1 (stereo not shown) [Compound 390, oxazol-5-ylmethyl (4-((8-(piperidine-1-carbonyl)-8-azabicyclo[3.2.1]octan-3-yl)methyl)phenyl)carbamate]",0.13,1.8

# Next, values leading:
AC1.4 Human [µM],EC50 [µM],SMILES
14.47,35.9,"COCCN1CCC(c2ccc(NC(=O)OCc3cnco3)cc2)CC1 [Compound 348, 1,3-oxazol-5-ylmethyl N-{4-[1-(2-methoxyethyl)piperidin-4-yl]phenyl}carbamate]"
1.09,39.9,"CC(C)C(=O)N1CC2(CC(c3ccc(NC(=O)OCc4cnco4)cc3)C2)C1 [Compound 357, oxazol-5-ylmethyl (4-(2-isobutyryl-2-azaspiro[3.3]heptan-6-yl)phenyl)carbamate]"
0.25,28.9,"CC(=O)N1CC2(CC(c3ccc(NC(=O)OCc4cnco4)cc3)C2)C1 [Compound 358, oxazol-5-ylmethyl (4-(2-acetyl-2-azaspiro[3.3]heptan-6-yl)phenyl)carbamate]"
0.33,38.6,"CS(=O)(=O)N1CCC[C@H](c2ccc(NC(=O)OCc3cnco3)cc2)C1 [Compound 365, oxazol-5-ylmethyl (R)-(4-(1-(methylsulfonyl)piperidin-3-yl)phenyl)carbamate]"
0.15,10.2,"CN(C)S(=O)(=O)N1CCC[C@H](c2ccc(NC(=O)OCc3cnco3)cc2)C1 [Compound 366, oxazol-5-ylmethyl (R)-(4-(1-(N,N-dimethylsulfamoyl)piperidin-3-yl)phenyl)carbamate]"
0.16,4.36,"CCS(=O)(=O)N1CCC2(CC(Cc3ccc(NC(=O)OCc4cnco4)cc3F)C2)C1 (stereo not shown) [Compound 369, oxazol-5-ylmethyl (3-fluoro-4-((6-(ethylsulfonyl)-6-azaspiro[3.4]octan-2-yl)methyl)phenyl)carbamate]"
0.13,5.8,"CS(=O)(=O)N1CCC2(CC(Cc3ccc(NC(=O)OCc4cnco4)cc3F)C2)C1 (stereo not shown) [Compound 370, oxazol-5-ylmethyl (3-fluoro-4-((6-(methylsulfonyl)-6-azaspiro[3.4]octan-2-yl)methyl)phenyl)carbamate]"
0.08,4.17,"CC(=O)N1CCC2(CC(Cc3ccc(NC(=O)OCc4cnco4)cc3F)C2)C1 (stereo not shown) [Compound 374, oxazol-5-ylmethyl (4-((6-acetyl-6-azaspiro[3.4]octan-2-yl)methyl)-3-fluorophenyl)carbamate]"
1.32,53.8,"CC(=O)N1CCC[C@H](c2ccc(NC(=O)OCc3cnco3)cc2)C1 [Compound 375, oxazol-5-ylmethyl (R)-(4-(1-acetylpiperidin-3-yl)phenyl)carbamate]"
0.84,41.5,"O=C(Nc1ccc([C@@H]2CCCN(C3COC3)C2)cc1)OCc1cnco1 [Compound 380, oxazol-5-ylmethyl (S)-(4-(1-(oxetan-3-yl)piperidin-3-yl)phenyl)carbamate]"
3.37,17,"CC(=O)N1CCC[C@@H](c2ccc(NC(=O)OCc3cnco3)cc2)C1 [Compound 381, oxazol-5-ylmethyl (S)-(4-(1-acetylpiperidin-3-yl)phenyl)carbamate]"
0.35,22.4,"CS(=O)(=O)N1CCC[C@@H](c2ccc(NC(=O)OCc3cnco3)cc2)C1 [Compound 382, oxazol-5-ylmethyl (S)-(4-(1-(methylsulfonyl)piperidin-3-yl)phenyl)carbamate]"
2.58,20.3,"COC(=O)N1CCC[C@@H](c2ccc(NC(=O)OCc3cnco3)cc2)C1 [Compound 383, methyl (S)-3-(4-(((oxazol-5-ylmethoxy)carbonyl)amino)phenyl)piperidine-1-carboxylate]"
0.24,23.3,"CN(C)S(=O)(=O)N1CCC[C@@H](c2ccc(NC(=O)OCc3cnco3)cc2)C1 [Compound 384, oxazol-5-ylmethyl (S)-(4-(1-(N,N-dimethylsulfamoyl)piperidin-3-yl)phenyl)carbamate]"
0.14,14.1,"CCS(=O)(=O)N1CC2(CC(Cc3ccc(NC(=O)OCc4cnco4)cc3F)C2)C1 [Compound 386, oxazol-5-ylmethyl (4-((2-(ethylsulfonyl)-2-azaspiro[3.3]heptan-6-yl)methyl)-3-fluorophenyl)carbamate]"
0.08,2.76,"CN(C)S(=O)(=O)N1CC2(CC(c3ccc(NC(=O)OCc4cnco4)cc3F)C2)C1 [Compound 387, oxazol-5-ylmethyl (4-(2-(N,N-dimethylsulfamoyl)-2-azaspiro[3.3]heptan-6-yl)-3-fluorophenyl)carbamate]"
0.13,10.2,"CS(=O)(=O)N1CC2(CC(c3ccc(NC(=O)OCc4cnco4)cc3F)C2)C1 [Compound 388, oxazol-5-ylmethyl (3-fluoro-4-(2-(methylsulfonyl)-2-azaspiro[3.3]heptan-6-yl)phenyl)carbamate]"
